Data: ChEMBL document CHEMBL1255361, “Differential antibiotic susceptibility of Mycobacterium abscessus variants in biofilms and macrophages compared to that of planktonic bacteria” (2008)
In brackets after ≈: the same amount, converted by molar mass. Activity calls are given as the source filed them. The calls are words filed in the database; no cut-off is given here.

Assays:
[1] = tested on: Mycobacteroides abscessus; experiment: Antimicrobial activity against Mycobacterium abscessus 390S assessed as inhibition of planktonic cell growth in replete medium; type: functional
[2] = tested on: Mycobacteroides abscessus; experiment: Antimicrobial activity against Mycobacterium abscessus 390R after 96 hrs; type: functional
[3] = tested on: Mycobacteroides abscessus; experiment: Antimicrobial activity against Mycobacterium abscessus 390S assessed as inhibition of planktonic cell growth in depleted medium; type: functional
[4] = tested on: Mycobacteroides abscessus; experiment: Antimicrobial activity against Mycobacterium abscessus 390S assessed as inhibition of resuspended biofilm formation in replete medium; type: functional
[5] = tested on: Mycobacteroides abscessus; experiment: Antimicrobial activity against Mycobacterium abscessus 390S; type: functional
[6] = tested on: Mycobacteroides abscessus; experiment: Antimicrobial activity against Mycobacterium abscessus 390S assessed as inhibition of biofilm formation at 64 ug/ml after 24 hrs; type: functional
[7] = tested on: Mycobacteroides abscessus; experiment: Bacteriostatic activity against Mycobacterium abscessus 390V infected in human monocyte-derived macrophage at 10 times MIC; type: functional, organism-based
[8] = tested on: Mycobacteroides abscessus; experiment: Bacteriostatic activity against Mycobacterium abscessus 390S assessed as inhibition of planktonic cell growth up to 1024 ug/ml after 24 hrs; type: functional, organism-based
[9] = tested on: Mycolicibacterium fortuitum; experiment: Antimicrobial activity against Mycobacterium fortuitum; type: functional
[10] = tested on: Mycobacteroides abscessus; experiment: Antimicrobial activity against Mycobacterium abscessus 390V after 96 hrs; type: functional
[11] = tested on: Mycobacteroides abscessus; experiment: Bacteriostatic activity against Mycobacterium abscessus 390R infected in human monocyte-derived macrophage assessed as inhibition of planktonic cell growth at 4 ug/ml treated 24 hrs postinfection; type: functional, organism-based
[12] = tested on: Mycobacteroides abscessus; experiment: Antimicrobial activity against Mycobacterium abscessus 390S infected in human monocyte-derived macrophage assessed as reduction in viable bacteria count at 10 times MIC by […]; type: functional, organism-based
[13] = tested on: Mycobacteroides abscessus; experiment: Antimicrobial activity against Mycobacterium abscessus 390S assessed as inhibition of biofilm formation up to 512 ug/ml after 24 hrs; type: functional
[14] = tested on: Mycobacteroides abscessus; experiment: Antimicrobial activity against Mycobacterium abscessus 390S assessed as inhibition of biofilm formation up to 128 ug/ml treated during lag-phase measured after 24 hrs; type: functional, organism-based
[15] = tested on: Mycobacteroides abscessus; experiment: Antimicrobial activity against Mycobacterium abscessus 390S assessed as inhibition of biofilm formation up to 128 ug/ml treated during mid log-phase; type: functional
[16] = tested on: Mycobacteroides abscessus; experiment: Bacteriostatic activity against Mycobacterium abscessus 390V infected in human monocyte-derived macrophage assessed as inhibition of planktonic cell growth at 4 ug/ml treated 24 hrs postinfection; type: functional, organism-based
[17] = tested on: Mycobacteroides abscessus; experiment: Antimicrobial activity against Mycobacterium abscessus 390S after 96 hrs; type: functional
[18] = tested on: Mycobacteroides abscessus; experiment: Bacteriostatic activity against Mycobacterium abscessus 390S infected in human monocyte-derived macrophage assessed as inhibition of planktonic cell growth at 4 ug/ml treated 24 hrs postinfection; type: functional, organism-based

Which MBC [1] does the source give for `NCC[C@H](O)C(=O)N[C@@H]1C[C@H](N)[C@@H](O[C@H]2O[C@H](CN)[C@@H](O)[C@H](O)[C@H]2O)[C@H](O)[C@H]1O[C@H]1O[C@H](CO)[C@@H](O)[C@H](N)[C@H]1O` [AMIKACIN] here?
Its MBC is 32 µg/mL (≈ 54.6 µM).

What about the MIC [2] of the same molecule?
The MIC was 2 µg/mL (≈ 3.42 µM).

What about the MBC [3] of the same molecule?
The MBC was 128 µg/mL (≈ 219 µM).

And the MBC [4]?
Its MBC is 64 µg/mL (≈ 109 µM).

And the MBC [5]?
Its MBC is 64 µg/mL (≈ 109 µM).

And the log10cfu [6]?
The log10cfu was 1.1.

And the Activity [7]?
Its Activity is “Active”.

With `CO[C@@]1(NC(=O)Cc2cccs2)C(=O)N2C(C(=O)O)=C(COC(N)=O)CS[C@@H]21` [CEFOXITIN] as the molecule, how does the Activity [8] read?
Its Activity is “Active”.

What about the Activity [7] of the same molecule?
Its Activity is “Active”.

What about the MIC [9] of the same molecule?
Its MIC is 6.25 µg/mL (≈ 14.6 µM).

What about the MIC [10] of the same molecule?
Its MIC is 8 µg/mL (≈ 18.7 µM).

For `CC[C@H]1OC(=O)[C@H](C)[C@@H](O[C@H]2C[C@@](C)(OC)[C@@H](O)[C@H](C)O2)[C@H](C)[C@@H](O[C@@H]2O[C@H](C)C[C@H](N(C)C)[C@H]2O)[C@](C)(OC)C[C@@H](C)C(=O)[C@H](C)[C@@H](O)[C@]1(C)O` [CLARITHROMYCIN], which MBC [1] is on record?
The MBC was 16 µg/mL (≈ 21.4 µM).

What about the MBC [3] of the same molecule?
Its MBC is 256 µg/mL (≈ 342 µM).

And the MBC [4]?
Its MBC is 256 µg/mL (≈ 342 µM).

And the Activity [11]?
Its Activity is “Active”.

And the MBC [5]?
Its MBC is 16 µg/mL (≈ 21.4 µM).

And the Activity [12]?
Its Activity is “Active”.

And the log10cfu [13]?
The log10cfu was 0.6.

What about the Activity [14] of the same molecule?
The Activity was “inactive”.

What about the log10cfu [15] of the same molecule?
Its log10cfu is 1.

What about the Activity [16] of the same molecule?
Its Activity is “Active”.

What about the MIC [17] of the same molecule?
The MIC was 0.25 µg/mL (≈ 0.334 µM).

And the Activity [18]?
Its Activity is “Active”.
